Assay [1] in a line: Antibacterial activity of TMP-susceptible Dihydrofolate reductase against […] ATCC 49619.
Assay [2] can be described thus: Inhibitory activity of TMP-susceptible Dihydrofolate reductase against […] ATCC 49619.

Molecules are shown by their SMILES.

For `Nc1ncc(CN2CCc3c([nH]c4ccccc34)C2)c(N)n1` [5-(1,3,4,9-Tetrahydro-beta-carbolin-2-ylmethyl)-pyrimidine-2,4-diamine], the IC50 in assay [1] was 4 nM.
With `CC1c2ccc3c4ccccc4n(C)c3c2CCN1Cc1cnc(N)nc1N` (stereo unspecified) [5-(4,11-Dimethyl-1,2,4,11-tetrahydro-pyrido[4,3-a]carbazol-3-ylmethyl)-pyrimidine-2,4-diamine], the concentration for half-maximal inhibition (IC50) in assay [2] was 10 nM; in assay [1], 4 nM.
Compound `CC1c2cc(Cc3ccccc3)c(-c3ccccc3)n2CCN1Cc1cnc(N)nc1N` (stereo unspecified) [5-(7-Benzyl-1-methyl-6-phenyl-3,4-dihydro-1H-pyrrolo[1,2-a]pyrazin-2-ylmethyl)-pyrimidine-2,4-diamine] yielded a half-maximal inhibitory concentration (IC50) in assay [1] of 450 nM.
Still for that read-out and setting: to `CSc1c2n(c3cc(Cl)ccc13)CCN(Cc1cnc(N)nc1N)C2` [5-(7-Chloro-10-methylsulfanyl-3,4-dihydro-1H-pyrazino[1,2-a]indol-2-ylmethyl)-pyrimidine-2,4-diamine] belongs 2 nM; to `COc1ccc2c(c1)CN(Cc1cnc(N)nc1N)CC2c1cccc([N+](=O)[O-])c1` (stereo unspecified) [5-[7-Methoxy-4-(3-nitro-phenyl)-3,4-dihydro-1H-isoquinolin-2-ylmethyl]-pyrimidine-2,4-diamine], 6 nM.

As usually defined, the IC50 is the concentration at which inhibition is half-maximal. A lower IC50 goes with inhibition by little substance.
